We go through 43 compounds from ChEMBL document CHEMBL1131608, “Structure-activity relationships and molecular modeling of 3, 5-diacyl-2,4-dialkylpyridine derivatives as selective A3 adenosine receptor antagonists” (J Med Chem, 1998).

Assay [1] has as its system HEK293. Put plainly: Selectivity for binding affinity towards A1 adenosine receptor in rat brain membrane and human A3 receptor expressed in HEK cells. The class given is cell-based.
For assay [2], the target named is T1, Adenosine receptor A3 (Homo sapiens) (UniProt P0DMS8).
T1 sequence (whole entry): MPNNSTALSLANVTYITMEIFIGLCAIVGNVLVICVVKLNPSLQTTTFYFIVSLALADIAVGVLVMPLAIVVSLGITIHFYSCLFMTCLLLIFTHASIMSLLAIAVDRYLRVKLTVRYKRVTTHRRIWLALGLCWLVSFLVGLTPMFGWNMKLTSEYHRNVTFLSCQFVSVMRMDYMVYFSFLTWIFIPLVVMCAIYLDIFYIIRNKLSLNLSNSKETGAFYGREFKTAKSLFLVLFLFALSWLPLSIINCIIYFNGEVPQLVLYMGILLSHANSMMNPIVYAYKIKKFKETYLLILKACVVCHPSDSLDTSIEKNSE
Put plainly: Binding affinity towards adenosine A3 receptor by measuring its ability to displace [125I]AB-MECA binding to membranes prepared from HEK293 cells. The class given is cell membranes.

The target in assay [3] is T2, Adenosine receptor A1 (Rattus norvegicus) (UniProt P25099).
T2 sequence (whole entry): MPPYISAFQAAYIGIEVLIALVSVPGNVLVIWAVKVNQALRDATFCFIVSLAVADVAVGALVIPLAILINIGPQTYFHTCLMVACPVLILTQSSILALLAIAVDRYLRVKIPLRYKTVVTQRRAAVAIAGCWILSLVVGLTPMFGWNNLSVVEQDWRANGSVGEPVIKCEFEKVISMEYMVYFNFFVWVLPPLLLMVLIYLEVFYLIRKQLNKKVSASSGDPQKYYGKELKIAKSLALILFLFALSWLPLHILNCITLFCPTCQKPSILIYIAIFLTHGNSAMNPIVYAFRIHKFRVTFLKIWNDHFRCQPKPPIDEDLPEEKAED
The assay is described as follows: Binding affinity towards adenosine A1 receptor by measuring its ability to displace [3H]-R-PIA in rat brain membranes at a concentration of 10e-4 M. The class given is cell membranes.

Assay [4] deals with Adenosine receptor A2a (Rattus norvegicus) (UniProt P30543). The assay is described as follows: Binding affinity towards adenosine A2A receptor by measuring its ability to displace [3H]-CGS- 21680 in rat striatal membranes at a concentration of 10e-4 M. To be noted: Striatum, Membrane. The class given is cell membranes.
Sequence of Adenosine receptor A2a (Rattus norvegicus) (P30543 whole entry): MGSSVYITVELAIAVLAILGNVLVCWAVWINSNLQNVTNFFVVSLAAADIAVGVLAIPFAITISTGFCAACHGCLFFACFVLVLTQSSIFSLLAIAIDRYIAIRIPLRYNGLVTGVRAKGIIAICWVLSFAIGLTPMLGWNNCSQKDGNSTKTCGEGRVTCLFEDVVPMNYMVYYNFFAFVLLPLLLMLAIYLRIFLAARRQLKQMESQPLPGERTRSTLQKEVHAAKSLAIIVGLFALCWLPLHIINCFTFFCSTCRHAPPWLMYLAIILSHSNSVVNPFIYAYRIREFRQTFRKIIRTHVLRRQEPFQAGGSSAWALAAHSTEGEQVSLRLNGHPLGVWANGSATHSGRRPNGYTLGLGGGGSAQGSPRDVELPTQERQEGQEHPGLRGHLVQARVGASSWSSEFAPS
Assay [5] deals with Adenosine receptor A2a (Rattus norvegicus, UniProt P30543). The assay is described as follows: Binding affinity for adenosine A2A receptor as displacement of [3H]-CGS- 21680 from rat striatal membranes. The class given is cell membranes, Membrane.
Sequence of Adenosine receptor A2a (P30543 whole entry): as above
The target in assay [6] is Adenosine receptor A2a (Rattus norvegicus) (UniProt P30543). The assay is described as follows: Binding affinity for adenosine A2A receptor as displacement of [3H]-CGS- 21680 from rat striatal membranes at 10e-4 M. The class given is cell membranes. To be noted: Membrane. (Loss of bound radioactivity is the signal in a displacement assay; it reports binding, not function.)

The target in assay [7] is T1, Adenosine receptor A3 (Homo sapiens). Put plainly: Binding affinity for adenosine A3 receptor as displacement of [125I]AB-MECA from HEK293 cell membranes at 10e-4 M.
The target in assay [8] is T3, Adenosine receptor A1 (Rattus norvegicus, UniProt P25099).
T3 sequence (P25099 whole entry): T2 sequence (whole entry)
The assay is described as follows: Binding affinity for adenosine A1 receptor as displacement of [3H]R-PIA from rat brain membranes at 10e-4 M. The class given is cell membranes, Membrane.

Each structure is given as a SMILES string.

For orientation: Ki means the dissociation constant of the complex between target and ligand, obtained from inhibition or displacement. By inhibition is commonly meant the percentage by which the read-out fell short of the control. High values mean strong suppression, low ones little suppression. Take `CCSC(=O)c1c(CC)nc(-c2ccccc2)c(C(=O)OCCO)c1CC`: in assay [1], the Ratio turned out to be 93. This compound displayed a Ki in assay [2] of 188 nM. The inhibition in assay [3] is 17.4%; in assay [4], 10%.
With `CCOC(=O)C1=C(c2ccccc2)N=C(C)/C(=C(/O)OCC)C1CC` (stereo not given), in assay [5], the Ki worked out at 21800 nM.
For the compound `CCOC(=O)C1=C(C)NC(C2CCCC2)=C(C(=O)OCc2ccccc2)C1C#Cc1ccccc1` (stereo not given), the Ratio in assay [1] amounted to 340.
On to `CCCOC(=O)c1c(C)nc(-c2ccccc2)c(C(=O)OCC)c1C`, for which, in assay [1], the Ratio was 23. The compound further registered an inhibitory constant (Ki) in assay [2] of 215 nM. Further, the figures for the inhibition in assay [3] and in assay [4] were 5.05% and 24.5%, respectively.
The corresponding values for `CCOC(=O)c1c(-c2ccccc2)nc(C)c(C(=O)SCC)c1CC` are 340, 143 nM, 14.8% and 14.9%.
For `CCOC(=O)c1c(C2CCCC2)nc(CC)c(C(=O)SCC)c1CC` the same measures were 16, 3380 nM, 55.3% and 26.1%.
As for `CCCC1C(C(=O)OCC)=C(c2ccccc2)N=C(C)/C1=C(/O)SCC` (stereo not given), the inhibition in assay [6] amounted to 29%; in assay [3], 48%.
Regarding `CCOC(=O)C1=C(c2ccccc2)N=C(CC)/C(=C(/O)SCC)C1CC` (stereo not given), the Ratio in assay [1] was more than 50. In addition, the affinity in assay [2], expressed as Ki, was 907 nM. Further, the inhibition in assay [3] was found to be 34%; in assay [4], 29.1%.
Regarding `CCOC(=O)c1c(-c2ccccc2)nc(CCOC)c(C(=O)SCC)c1CC`, in assay [1], the Ratio turned out to be 600. In assay [2], this compound showed a Ki of 16.8 nM. Besides, the figures for the inhibition in assay [3] and in assay [4] were 10.1% and 12.6%, respectively.
The corresponding values for `CCOC(=O)c1c(C)nc(-c2ccccc2)c(C(=O)OCC)c1CC` are 19, 176 nM, 3.36% and 3.69%.
`CCOC(=O)c1c(C)nc(-c2ccccc2)c(C(=O)OCc2ccccc2)c1C#Cc1ccccc1` returned a Ki in assay [5] of 43000 nM. Besides, the inhibition in assay [7] was 2.75%. For the same compound, the Ratio in assay [1] is 4.2.
In assay [4], `CCOC(=O)c1c(C)nc(-c2ccccc2)c(C(=O)OCC)c1C` registered an inhibition of 28.4%.
With `CCCc1nc(-c2ccccc2)c(C(=O)OCC)c(CC)c1C(=O)SCC`, the Ratio in assay [1] is 500. The same compound displayed a Ki in assay [2] of 33.3 nM. Besides, the inhibition was 16.7% in assay [3] and 2.82% in assay [4].
Compound `CCOC(=O)C1=C(c2ccccc2)N=C(C)/C(=C(/O)OCC)C1/C=C/c1ccccc1` (stereo not given) showed an inhibition in assay [4] of 4.77%.
In assay [8], `CNC(=O)[C@H]1O[C@@H](n2cnc3c(NCc4ccc(N)c(I)c4)ncnc32)[C@H](O)[C@@H]1O` yielded a Ki of 3.4 nM.
On to `CCOC(=O)c1c(-c2ccccc2)nc(CC)c(C(=O)O)c1CC`, for which the Ratio in assay [1] worked out at 3.3. Moreover, in assay [2], the affinity, expressed as Ki, was 1280 nM. Further, the inhibition was determined as 4.25% in assay [3] and 7.09% in assay [4].
The corresponding values for `CCCCc1nc(-c2ccccc2)c(C(=O)OCC)c(CC)c1C(=O)SCC` are 1200, 35 nM, 40.3% and less than 10%.
As for `CCOC(=O)C1=C(C)NC(C2CCCCC2)=C(C(=O)OCc2ccccc2)C1C#Cc1ccccc1` (stereo not given), the inhibition is 20% in assay [6] and 22% in assay [3].
On to `CCS/C(O)=C1\C(C)=NC(c2ccccc2)=C(C(=O)OCc2ccccc2)C1CC` (stereo not given), for which the inhibition in assay [6] is 14.3%; in assay [3] it was 45%. In addition, the Ratio in assay [1] was more than 50. Moreover, in assay [2], the Ki came to 1650 nM.
In the case of `CCOC(=O)C1=C(C)NC(C2CC2)=C(C(=O)OCc2ccccc2)C1C#Cc1ccccc1` (stereo not given), the inhibition stood at 10% in assay [6] and 22% in assay [3].
For the compound `CCOC(=O)c1c(-c2ccccc2)nc(CC)c(C(=O)SCC)c1CC`, the Ratio in assay [1] was more than 3000. For the same compound, the Ki in assay [2] was found to be 20 nM. The figures for the inhibition in assay [3] and in assay [4] were 41% and 6.13%, respectively.
The corresponding values for `CCCSC(=O)c1c(CC)nc(-c2ccccc2)c(C(=O)OCC)c1CC` are 520, 15.9 nM, 8.22% and 15.7%.
`CCOC(=O)c1c(C)nc(C2CCCC2)c(C(=O)OCc2ccccc2)c1C#Cc1ccccc1`: in assay [1], the Ratio is 15.
On to `CCOC(=O)C1=C(c2ccccc2)N=C(C)/C(=C(/O)OCC)C1C(OC)OC` (stereo not given), for which the Ratio in assay [1] was more than 5. The compound also gave a Ki in assay [2] of 15300 nM. For the same compound, the inhibition in assay [3] was 32%; in assay [4] it was less than 10%.
For `CCCc1c(C(=O)SCC)c(C)nc(-c2ccccc2)c1C(=O)OCC` the same measures were more than 700, 194 nM, 29% and 7.53%.
For `CCOC(=O)C1=C(c2ccccc2)N=C(C)/C(=C(/O)SCCOC)C1CC` (stereo not given), the inhibition in assay [6] was 12.5%; in assay [3], 36%. Also, in assay [1], the Ratio was more than 10. The Ki in assay [2] came out at 4580 nM.
For `CCOC(=O)c1c(C)nc(-c2ccccc2)c(C(=O)OCC)c1C(OC)OC`, in assay [1], the Ratio turned out to be 2.5. The compound further registered a Ki in assay [2] of 783 nM. For the same compound, the figures for the inhibition in assay [3] and in assay [4] were 1.95% and 2.88%, respectively.
Regarding `CCOC(=O)C1=C(c2ccccc2)N=C(C)/C(=C(/O)OCC)C1C=O` (stereo not given), in assay [1], the Ratio stood at 6. The affinity in assay [2], expressed as Ki, was 15600 nM. In addition, the inhibition in assay [3] was 26%; in assay [4], 32%.
`CCOC(=O)c1c(-c2cccc(Cl)c2)nc(CC)c(C(=O)SCC)c1CC`: in assay [1], the Ratio worked out at 610. The compound further returned a Ki in assay [2] of 13.4 nM. Further, the inhibition in assay [3] was 8.2%; in assay [4], 8.91%.
As to `CCOC(=O)c1c(-c2ccccc2)nc(C2CCC2)c(C(=O)SCC)c1CC`, the Ratio in assay [1] is more than 500. For the same compound, the Ki in assay [2] is 145 nM. Besides, the figures for the inhibition in assay [3] and in assay [4] were 30% and 22%, respectively.
Consider `CCCOC(=O)c1c(-c2cccc(Cl)c2)nc(CC)c(C(=O)SCCC)c1CC`, for which the Ratio in assay [1] worked out at 5200. Further, in assay [2], the Ki came out at 7.94 nM. Besides, the results for the inhibition in assay [3] and in assay [4] were 41.4% and 24.1%, respectively.
As to `CCOC(=O)C1=C(c2ccccc2)N=C(C)/C(=C(/O)SCC)C1CC` (stereo not given), the inhibition in assay [3] came to 35.4%; in assay [4], 54.8%.
Take `CCOC(=O)c1c(-c2ccccc2)nc(C)c(C(=O)SCCOC)c1CC`: in assay [1], the Ratio is more than 500. In assay [2], this compound came in with a Ki of 165 nM. The values for the inhibition in assay [3] and in assay [4] were 36% and 7.98%, respectively.
`CCOC(=O)C1=C(C)NC(C2CCC2)=C(C(=O)OCc2ccccc2)C1C#Cc1ccccc1` (stereo not given): the inhibition was found to be 10% in assay [6] and 36% in assay [3].
Regarding `CCOC(=O)C1=C(c2ccccc2)N=C(CC)/C(=C(/O)OCC)C1C` (stereo not given), the inhibition in assay [6] is less than 10%; in assay [3], 20%.
Regarding `CCOC(=O)c1c(C)nc(C2CCC2)c(C(=O)OCc2ccccc2)c1C#Cc1ccccc1`, the inhibition in assay [3] was less than 10%.
Regarding `CCCC1=NC(c2ccccc2)=C(C(=O)OCC)C(CC)/C1=C(\O)SCC` (stereo not given), the Ratio in assay [1] is more than 20. The compound further came in with a Ki in assay [2] of 2090 nM. The inhibition in assay [3] is 26%; in assay [4], less than 10%.
`CCO/C(O)=C1\C(C)=NC(c2ccccc2)=C(C(=O)OCc2ccccc2)C1C#Cc1ccccc1` (stereo not given) yielded an inhibition in assay [4] of less than 10%.
In the case of `CCCOC(=O)c1c(-c2ccccc2)nc(CC)c(C(=O)SCC)c1CC`, the Ratio in assay [1] worked out at 940. The compound further yielded a Ki in assay [2] of 8.29 nM. In addition, the inhibition in assay [3] is 7.77%; in assay [4] it was less than 10%.
For `CCSC(=O)c1c(C)nc(-c2ccccc2)c(C(=O)Oc2ccccc2)c1CC` the same measures were more than 40, 2610 nM, 20% and 12.8%.
The corresponding values for `CCOC(=O)c1c(CC)nc(-c2ccccc2)c(C(=O)OCC)c1C` are 85, 121 nM, 10.3% and 13.4%.
Take `CCCOC(=O)c1c(-c2ccccc2)nc(CC)c(C(=O)SCC)c1CCC`: the Ratio in assay [1] is 830. Also, the Ki in assay [2] stood at 18.9 nM. Also, the inhibition in assay [3] stood at 15.6%; in assay [4] it was 2.05%.
Consider `CCOC(=O)c1c(C)nc(-c2ccccc2)c(C(=O)OCC)c1C=O`, for which the Ratio in assay [1] came out at 4.8. Moreover, in assay [2], the Ki is 1980 nM. For the same compound, the inhibition in assay [3] was found to be 9.56%; in assay [4], 2.56%.
